Legend:
[1] = biological target: T1, Eukaryotic elongation factor 2 kinase (Homo sapiens) (UniProt O00418); test: Selectivity interaction (Kinase panel (KiNativ target engagement assay in Jurkat cells)) EUB0001635a EEF2K; assay type: cell-based; details: Selectivity number of off-targets 0.0, Selectivity number of targets 233.0, Source Knowledge https://www.sciencedirect.com/science/article/pii/S2451945619300674?via%3Dihub, at 1 µM
T1 sequence (whole entry): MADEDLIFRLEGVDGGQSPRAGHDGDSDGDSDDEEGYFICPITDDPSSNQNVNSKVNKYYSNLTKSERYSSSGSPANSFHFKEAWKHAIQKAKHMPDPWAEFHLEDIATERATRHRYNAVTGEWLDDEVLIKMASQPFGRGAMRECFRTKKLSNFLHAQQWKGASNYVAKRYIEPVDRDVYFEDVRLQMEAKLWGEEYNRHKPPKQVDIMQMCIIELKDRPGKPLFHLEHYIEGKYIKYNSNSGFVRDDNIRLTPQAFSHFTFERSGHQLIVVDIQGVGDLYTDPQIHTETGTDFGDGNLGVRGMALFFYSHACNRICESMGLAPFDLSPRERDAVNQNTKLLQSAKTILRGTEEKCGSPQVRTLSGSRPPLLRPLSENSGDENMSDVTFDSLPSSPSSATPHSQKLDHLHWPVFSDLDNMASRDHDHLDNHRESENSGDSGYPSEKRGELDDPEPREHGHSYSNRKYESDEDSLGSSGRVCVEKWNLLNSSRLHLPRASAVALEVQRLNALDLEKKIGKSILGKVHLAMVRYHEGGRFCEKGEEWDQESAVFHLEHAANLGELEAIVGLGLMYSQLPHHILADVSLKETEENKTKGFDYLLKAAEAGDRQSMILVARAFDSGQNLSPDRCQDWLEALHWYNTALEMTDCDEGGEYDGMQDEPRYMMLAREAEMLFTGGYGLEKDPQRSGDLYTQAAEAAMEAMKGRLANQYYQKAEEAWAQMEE

[2] = Selectivity interaction (KinomeScan (DiscoverX)) EUB0000229b CDPK1; details: at 1 µM
[3] = biological target: T2, Serine/threonine-protein kinase 17B (Homo sapiens) (UniProt O94768); test: Selectivity interaction (KinomeScan (DiscoverX)) EUB0001079a STK17B; details: at 1 µM
T2 sequence (whole entry): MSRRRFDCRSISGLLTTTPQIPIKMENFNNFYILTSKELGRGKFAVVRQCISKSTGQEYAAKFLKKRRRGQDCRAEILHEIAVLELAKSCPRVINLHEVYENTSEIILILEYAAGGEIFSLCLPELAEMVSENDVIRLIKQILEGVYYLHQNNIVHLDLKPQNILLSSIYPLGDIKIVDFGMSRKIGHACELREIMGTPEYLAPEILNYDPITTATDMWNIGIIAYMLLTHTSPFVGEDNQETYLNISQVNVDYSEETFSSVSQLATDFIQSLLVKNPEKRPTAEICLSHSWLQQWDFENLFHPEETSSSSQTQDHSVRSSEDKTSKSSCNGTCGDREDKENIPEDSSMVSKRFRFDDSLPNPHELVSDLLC

[4] = biological target: Serine/threonine-protein kinase PAK 1 (Homo sapiens) (UniProt Q13153); test: Selectivity interaction (KinomeScan (DiscoverX)) EUB0001079a PAK1; details: at 1 µM
Chain of Serine/threonine-protein kinase PAK 1 (Homo sapiens) (Q13153 whole entry): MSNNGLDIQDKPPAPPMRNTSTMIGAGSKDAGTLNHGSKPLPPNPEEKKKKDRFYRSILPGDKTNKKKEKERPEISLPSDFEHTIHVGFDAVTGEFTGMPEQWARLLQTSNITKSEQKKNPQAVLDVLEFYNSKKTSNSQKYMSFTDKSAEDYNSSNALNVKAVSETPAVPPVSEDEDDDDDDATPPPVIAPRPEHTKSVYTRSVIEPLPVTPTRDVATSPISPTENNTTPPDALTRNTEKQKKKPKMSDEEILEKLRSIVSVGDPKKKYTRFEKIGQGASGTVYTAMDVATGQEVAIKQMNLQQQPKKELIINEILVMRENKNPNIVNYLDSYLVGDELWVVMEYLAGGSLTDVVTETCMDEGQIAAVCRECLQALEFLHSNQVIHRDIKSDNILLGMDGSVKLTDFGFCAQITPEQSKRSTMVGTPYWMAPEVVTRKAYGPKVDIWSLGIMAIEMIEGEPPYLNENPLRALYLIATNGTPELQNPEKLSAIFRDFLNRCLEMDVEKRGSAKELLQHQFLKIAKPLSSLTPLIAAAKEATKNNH

[5] = biological target: T3, Serine/threonine-protein kinase Chk1 (Homo sapiens) (UniProt O14757); details: at 10 µM
T3 sequence (whole entry): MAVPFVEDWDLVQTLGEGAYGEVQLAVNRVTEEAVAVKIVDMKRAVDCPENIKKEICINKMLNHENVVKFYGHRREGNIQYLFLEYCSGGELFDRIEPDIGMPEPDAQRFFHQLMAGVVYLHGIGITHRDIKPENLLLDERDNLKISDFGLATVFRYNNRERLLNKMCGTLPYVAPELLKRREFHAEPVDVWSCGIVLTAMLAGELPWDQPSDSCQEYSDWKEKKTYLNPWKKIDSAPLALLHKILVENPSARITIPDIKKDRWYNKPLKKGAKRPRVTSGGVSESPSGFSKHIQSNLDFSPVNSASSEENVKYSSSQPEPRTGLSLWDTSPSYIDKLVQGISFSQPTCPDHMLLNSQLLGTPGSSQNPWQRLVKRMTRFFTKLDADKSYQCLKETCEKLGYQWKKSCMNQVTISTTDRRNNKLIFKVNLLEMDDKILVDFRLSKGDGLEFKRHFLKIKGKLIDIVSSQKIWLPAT

[6] = biological target: Mitogen-activated protein kinase kinase kinase 11 (Homo sapiens) (UniProt Q16584); test: Selectivity interaction (KinomeScan (DiscoverX)) EUB0001619a MAP3K11; details: at 1 µM
Chain of Mitogen-activated protein kinase kinase kinase 11 (Homo sapiens) (Q16584 whole entry, looked up): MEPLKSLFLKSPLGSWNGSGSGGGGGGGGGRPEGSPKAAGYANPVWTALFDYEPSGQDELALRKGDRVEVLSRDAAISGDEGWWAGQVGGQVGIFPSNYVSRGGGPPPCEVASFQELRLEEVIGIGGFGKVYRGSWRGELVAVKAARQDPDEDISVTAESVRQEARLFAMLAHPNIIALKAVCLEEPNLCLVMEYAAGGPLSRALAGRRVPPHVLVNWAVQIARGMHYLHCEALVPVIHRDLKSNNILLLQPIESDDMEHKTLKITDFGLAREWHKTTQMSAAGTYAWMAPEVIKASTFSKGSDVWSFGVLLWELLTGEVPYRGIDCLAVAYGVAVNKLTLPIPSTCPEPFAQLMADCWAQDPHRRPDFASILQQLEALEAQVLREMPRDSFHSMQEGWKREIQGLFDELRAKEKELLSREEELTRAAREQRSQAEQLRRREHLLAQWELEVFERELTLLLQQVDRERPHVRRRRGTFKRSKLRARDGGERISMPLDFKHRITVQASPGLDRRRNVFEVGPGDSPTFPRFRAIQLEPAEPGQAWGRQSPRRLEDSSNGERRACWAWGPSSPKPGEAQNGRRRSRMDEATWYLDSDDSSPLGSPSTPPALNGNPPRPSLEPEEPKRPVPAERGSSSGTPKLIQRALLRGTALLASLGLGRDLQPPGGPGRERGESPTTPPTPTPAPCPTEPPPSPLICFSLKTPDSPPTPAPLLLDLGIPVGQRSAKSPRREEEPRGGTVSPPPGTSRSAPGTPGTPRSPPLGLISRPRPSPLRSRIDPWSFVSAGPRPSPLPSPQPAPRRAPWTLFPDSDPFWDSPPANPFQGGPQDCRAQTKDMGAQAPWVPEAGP

[7] = biological target: Mitogen-activated protein kinase kinase kinase kinase 5 (Homo sapiens) (UniProt Q9Y4K4); test: Selectivity interaction (ActivX KiNativ screen (ex vivo kinase selectivity in human PBMCs)) EUB0001619a MAP4K5; assay type: cell-based; details: PBMC, at 1 µM
Chain of Mitogen-activated protein kinase kinase kinase kinase 5 (Homo sapiens) (Q9Y4K4 whole entry, looked up): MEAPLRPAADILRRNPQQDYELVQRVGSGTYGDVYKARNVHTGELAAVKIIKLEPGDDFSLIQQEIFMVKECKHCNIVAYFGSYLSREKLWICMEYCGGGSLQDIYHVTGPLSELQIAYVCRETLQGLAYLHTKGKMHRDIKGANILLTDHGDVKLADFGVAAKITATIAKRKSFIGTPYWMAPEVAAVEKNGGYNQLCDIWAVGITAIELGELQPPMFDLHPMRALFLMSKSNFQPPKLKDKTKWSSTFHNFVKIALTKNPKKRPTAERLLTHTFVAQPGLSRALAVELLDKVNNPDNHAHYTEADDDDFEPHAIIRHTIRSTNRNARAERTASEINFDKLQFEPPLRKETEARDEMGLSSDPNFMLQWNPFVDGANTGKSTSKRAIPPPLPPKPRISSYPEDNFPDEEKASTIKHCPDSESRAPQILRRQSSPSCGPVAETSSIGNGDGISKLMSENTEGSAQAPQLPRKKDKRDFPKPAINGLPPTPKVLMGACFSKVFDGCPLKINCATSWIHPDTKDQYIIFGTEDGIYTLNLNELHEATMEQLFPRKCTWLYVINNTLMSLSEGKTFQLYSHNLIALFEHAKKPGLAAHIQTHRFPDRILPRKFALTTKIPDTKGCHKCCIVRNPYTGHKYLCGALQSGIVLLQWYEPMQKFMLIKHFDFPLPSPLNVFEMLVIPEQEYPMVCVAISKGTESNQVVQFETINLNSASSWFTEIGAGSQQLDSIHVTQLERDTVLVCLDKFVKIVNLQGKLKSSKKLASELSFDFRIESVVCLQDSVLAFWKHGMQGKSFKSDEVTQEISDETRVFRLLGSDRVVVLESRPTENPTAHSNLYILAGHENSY

[8] = biological target: Homeodomain-interacting protein kinase 1 (Homo sapiens, UniProt Q86Z02); test: Selectivity interaction (KinomeScan (DiscoverX)) EUB0000607a HIPK1; details: at 10 µM
Chain of Homeodomain-interacting protein kinase 1 (Q86Z02 whole entry, looked up): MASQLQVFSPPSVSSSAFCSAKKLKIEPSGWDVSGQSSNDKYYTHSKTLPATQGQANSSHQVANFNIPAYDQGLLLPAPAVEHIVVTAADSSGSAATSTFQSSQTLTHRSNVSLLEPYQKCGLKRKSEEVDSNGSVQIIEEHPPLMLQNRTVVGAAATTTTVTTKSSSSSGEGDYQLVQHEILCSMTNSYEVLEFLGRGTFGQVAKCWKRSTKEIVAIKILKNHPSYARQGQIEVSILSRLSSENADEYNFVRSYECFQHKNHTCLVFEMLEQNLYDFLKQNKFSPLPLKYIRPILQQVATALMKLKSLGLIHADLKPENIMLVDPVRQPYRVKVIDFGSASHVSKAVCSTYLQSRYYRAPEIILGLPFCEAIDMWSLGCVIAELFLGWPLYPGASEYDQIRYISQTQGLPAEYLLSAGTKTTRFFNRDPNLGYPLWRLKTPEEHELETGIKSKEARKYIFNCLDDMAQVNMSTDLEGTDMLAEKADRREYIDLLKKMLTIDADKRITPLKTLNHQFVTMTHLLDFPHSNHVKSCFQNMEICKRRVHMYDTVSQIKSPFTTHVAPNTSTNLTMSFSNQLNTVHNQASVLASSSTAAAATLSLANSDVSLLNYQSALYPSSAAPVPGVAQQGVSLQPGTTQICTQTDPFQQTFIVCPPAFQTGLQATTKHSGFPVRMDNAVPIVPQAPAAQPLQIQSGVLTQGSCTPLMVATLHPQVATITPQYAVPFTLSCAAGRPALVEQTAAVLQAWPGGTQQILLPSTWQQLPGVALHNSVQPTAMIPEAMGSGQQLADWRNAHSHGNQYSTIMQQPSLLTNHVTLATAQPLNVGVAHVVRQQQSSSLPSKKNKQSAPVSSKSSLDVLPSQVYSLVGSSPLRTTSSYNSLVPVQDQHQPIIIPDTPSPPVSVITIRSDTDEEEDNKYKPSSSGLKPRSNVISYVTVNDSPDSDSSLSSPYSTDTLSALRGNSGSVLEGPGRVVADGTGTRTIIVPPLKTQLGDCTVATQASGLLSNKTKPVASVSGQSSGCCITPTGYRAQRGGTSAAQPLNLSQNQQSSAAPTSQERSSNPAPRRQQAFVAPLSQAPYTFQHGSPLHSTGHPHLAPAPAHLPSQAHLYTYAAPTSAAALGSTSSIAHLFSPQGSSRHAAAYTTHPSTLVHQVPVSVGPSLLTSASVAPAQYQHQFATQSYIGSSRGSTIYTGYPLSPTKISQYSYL

[9] = biological target: Serine/threonine-protein kinase MRCK beta (Homo sapiens) (UniProt Q9Y5S2); details: at 10 µM
[10] = biological target: Serine/threonine-protein kinase 35 (Homo sapiens) (UniProt Q8TDR2); test: Selectivity interaction (Ambit KINOMEscan and KiNATiv profiling in Jurkat cells) EUB0000090b STK35; assay type: cell-based; details: at 1 µM
Chain of Serine/threonine-protein kinase 35 (Homo sapiens) (Q8TDR2 whole entry): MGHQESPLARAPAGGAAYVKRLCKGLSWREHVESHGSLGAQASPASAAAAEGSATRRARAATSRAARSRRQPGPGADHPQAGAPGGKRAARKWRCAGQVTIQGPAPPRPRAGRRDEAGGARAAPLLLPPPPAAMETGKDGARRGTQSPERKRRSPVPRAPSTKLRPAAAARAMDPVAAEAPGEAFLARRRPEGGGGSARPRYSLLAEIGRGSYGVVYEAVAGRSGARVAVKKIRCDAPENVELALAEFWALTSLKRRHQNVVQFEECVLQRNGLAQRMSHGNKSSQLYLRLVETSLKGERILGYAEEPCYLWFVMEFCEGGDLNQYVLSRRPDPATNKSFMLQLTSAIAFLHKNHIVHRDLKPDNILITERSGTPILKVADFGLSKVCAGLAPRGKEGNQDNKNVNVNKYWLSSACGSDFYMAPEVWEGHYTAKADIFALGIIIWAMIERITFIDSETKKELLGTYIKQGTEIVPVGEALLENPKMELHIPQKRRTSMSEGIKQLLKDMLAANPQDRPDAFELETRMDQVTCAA

SMILES: C=CC(=O)Nc1ccc(C(=O)Nc2[nH]nc3c2CN(C(=O)N[C@H](CN(C)C)c2ccccc2)C3(C)C)cc1
- % of engagement [1]: -14.2%

SMILES: COc1cc(N(C)c2ccnc3ccc(C(F)(F)F)cc23)cc(OC)c1OC
- % binding [2]: 74%

SMILES: Nc1cnc(N2CCc3cc(S(=O)(=O)Nc4c(F)cc(Cl)cc4F)cc(N4CCCC4=O)c32)nc1 [TP-020n]
- % of control [3]: 100%
- % of control [4]: 89%

SMILES: Cc1cc([C@@H](C)Nc2ccccc2C(=O)O)c2nc(N3CCOCC3)cc(=O)n2c1 [AZD-6482]
- % of control [5]: 100%

SMILES: N#Cc1cccc(-c2c[nH]c3ncnc(N4CCOCC4)c23)c1
- % of control [6]: 100%
- % of inhibition [7]: -13%

SMILES: CNC(=O)Nc1ccc(-c2nc(N3CC4CCC(C3)O4)c3cnn(C4CCC5(CC4)OCCO5)c3n2)cc1
- % of control [8]: 100%

SMILES: CCN(CC)CCCCNc1ncc2cc(-c3cc(OC)cc(OC)c3)c(NC(=O)NC(C)(C)C)nc2n1
- % of control [9]: 100%

SMILES: CN(C)C/C=C/C(=O)Nc1ccc(C(=O)N2CCCC(Nc3ncc(Cl)c(-c4c[nH]c5ccccc45)n3)C2)cc1 (stereo not given)
- % of control [10]: 95%
